{
  "source": "paper PMC6650409",
  "about": "“Modeling the binding of diverse ligands within the Ah receptor ligand binding domain” (Scientific Reports, 2019)",
  "origin": "cited, not measured here",
  "target": "T1, L302A mutant AhR (Mus musculus, UniProt P30561, L302A)",
  "T1 construct": "made in house; host or cells: in vitro transcription/translation (rabbit reticulocyte lysate)",
  "T1 sequence (P30561 10-848 L302A)": "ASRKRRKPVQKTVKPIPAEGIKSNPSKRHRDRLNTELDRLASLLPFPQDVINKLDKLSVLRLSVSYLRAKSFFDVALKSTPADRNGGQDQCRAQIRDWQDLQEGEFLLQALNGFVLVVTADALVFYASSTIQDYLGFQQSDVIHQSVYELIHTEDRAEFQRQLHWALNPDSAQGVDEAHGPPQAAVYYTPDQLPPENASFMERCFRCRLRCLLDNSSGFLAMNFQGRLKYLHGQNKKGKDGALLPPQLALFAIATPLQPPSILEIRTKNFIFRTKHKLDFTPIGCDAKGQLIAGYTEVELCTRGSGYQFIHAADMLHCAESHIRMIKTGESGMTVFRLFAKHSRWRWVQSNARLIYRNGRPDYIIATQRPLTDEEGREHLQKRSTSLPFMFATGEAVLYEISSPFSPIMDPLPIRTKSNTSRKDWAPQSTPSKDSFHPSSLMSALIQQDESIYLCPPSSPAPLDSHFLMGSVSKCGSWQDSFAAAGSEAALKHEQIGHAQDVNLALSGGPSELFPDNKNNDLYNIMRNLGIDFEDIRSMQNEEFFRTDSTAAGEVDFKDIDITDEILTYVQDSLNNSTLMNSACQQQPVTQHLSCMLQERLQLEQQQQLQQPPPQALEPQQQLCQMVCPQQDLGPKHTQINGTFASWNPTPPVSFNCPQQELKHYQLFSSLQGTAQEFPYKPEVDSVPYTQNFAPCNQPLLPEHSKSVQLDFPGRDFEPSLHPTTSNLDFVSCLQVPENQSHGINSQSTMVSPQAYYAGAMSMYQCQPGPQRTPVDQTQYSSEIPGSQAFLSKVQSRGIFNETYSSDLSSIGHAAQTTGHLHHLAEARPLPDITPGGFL",
  "design": "method as in PMID 21981577",
  "settings": "L302A mutation; cited from earlier work",
  "data": [
    {"smiles": "Clc1cc2c(cc1Cl)Oc1cc(Cl)c(Cl)cc1O2", "note": "[TCDD, 2,3,7,8-tetrachlorodibenzo-p-dioxin]", "values": [
      {"measurement": "TCDD binding activity", "result": "dramatically reduced"}
    ]}
  ]
}
